# Columns and labels:
# Type in all cases: physicochemical
# [1] = Thermal decomposition temperature (TG/DTA, 2% weight reduction); conditions: point of 2% weight reduction; 10° C./minute from 30° C. to 500° C.; nitrogen atmosphere
# Method: The synthesized photoacid generator was measured for the change in weight under a temperature increasing condition of 10° C./minute from 30° C. to 500° C. under a nitrogen atmosphere using a thermal gravimetric/differential thermal analyzer (TG/DTA 6200, available from Seiko Instruments Inc.), and a point where the weight was reduced by 2% was defined as the thermal decomposition temperature.
# [2] = Molar extinction coefficient of i-line (365 nm), UV-visible absorbance in acetonitrile; conditions: 0.25 mmol/L in acetonitrile, cell length 1 cm
# In short: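 Compound at 0.25 mmol/L in acetonitrile; UV-visible absorbance scanned 200–500 nm in a 1 cm path cell. ε365 calculated from the absorbance at 365 nm.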
# [3] = Solvent solubility (butyl acetate, toluene or PGMEA); conditions: for Solvent solubility PGMEA / Solvent solubility Butyl acetate / Solvent solubility Toluene: 25° C.
# In short: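 Test-tube titration at 25° C: 0.1 g photoacid generator, solvent (butyl acetate, toluene or PGMEA) added in 0.2 g portions until fully dissolved. Scored as not dissolved if still undissolved after 20 g solvent.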
Compound,Thermal decomposition temperature [1] [°C],Molar extinction coefficient [2] [L/mol/cm],Solvent solubility PGMEA [3] [wt %],Solvent solubility Butyl acetate [3] [wt %],Solvent solubility Toluene [3] [wt %],solubility to a solvent (in words) ([3]; summary of Tables 4 to 6)
"O=C(Oc1cc2c3c(cccc3c1)C(=O)N(OS(=O)(=O)C(F)(F)F)C2=O)c1ccccc1 [Example A-11, 3-benzoyloxy-1,8-naphthalimide trifluoromethanesulfonate]",241,1400,20,25,23,
"O=C1c2cccc3c(Oc4c(F)c(F)c(F)c(F)c4F)ccc(c23)C(=O)N1OS(=O)(=O)C(F)(F)F [Example A-5, 4-pentafluorophenoxy-1,8-naphthalimide trifluoromethanesulfonate]",245,12000,14,17,16,
"CC(C)(C)c1cc2c3c(cc(C(C)(C)C)cc3c1)C(=O)N(OS(=O)(=O)C(F)(F)F)C2=O [Example A-13, 3,6-di-tert-butyl-1,8-naphthalimide trifluoromethanesulfonate]",245,6500,8,8,7.5,
"CCCCC(CC)C(=O)Oc1cc2c3c(cccc3c1)C(=O)N(OS(=O)(=O)C(F)(F)F)C2=O (stereo not drawn) [Example A-9, 3-(2-ethylhexanoyloxy)-1,8-naphthalimide trifluoromethanesulfonate]",231,1500,>30,>30,>30,
"CCCOc1ccc2c3c(cccc13)C(=O)N(OS(=O)(=O)C(F)(F)F)C2=O [Example A-2, 4-n-propoxy-1,8-naphthalimide trifluoromethanesulfonate]",238,14000,4,4.5,7.5,
"O=C(Oc1cc2c3c(cccc3c1)C(=O)N(OS(=O)(=O)C(F)(F)F)C2=O)c1c(F)c(F)c(F)c(F)c1F [Example A-12, 3-pentafluorobenzoyloxy-1,8-naphthalimide trifluoromethanesulfonate]",242,1300,>30,>30,>30,
"CC1(C)C2CCC1(CS(=O)(=O)ON1C(=O)c3cccc4cccc(c34)C1=O)C(=O)C2 (stereo not drawn) [A′-5, 1,8-naphthalimide-(+)-10-camphorsulfonate, reference compound]",230,330,<0.5,<0.5,<0.6,insufficient

# Results, then the compound that gave them:
Thermal decomposition temperature [1] [°C],Molar extinction coefficient [2] [L/mol/cm],Solvent solubility PGMEA [3] [wt %],Solvent solubility Butyl acetate [3] [wt %],Solvent solubility Toluene [3] [wt %],solubility to a solvent (in words) ([3]; summary of Tables 4 to 6),Compound
248,6200,14,18,10,,"CC(C)(C)Cc1cc2c3c(cc(CC(C)(C)C)cc3c1)C(=O)N(OS(=O)(=O)C(F)(F)F)C2=O [Example A-14, 3,6-dineopentyl-1,8-naphthalimide trifluoromethanesulfonate]"
252,6200,3.5,4.5,2.5,,"CC(C)(C)Cc1cc2c3c(cc(CC(C)(C)C)cc3c1)C(=O)N(OS(=O)(=O)CC13CCC(CC1=O)C3(C)C)C2=O (stereo not drawn) [Example A-54, 3,6-dineopentyl-1,8-naphthalimide-(+)-10-camphorsulfonate]"
235,1600,14,18,20,,"CCCC(=O)Oc1cc2c3c(cccc3c1)C(=O)N(OS(=O)(=O)c1c(F)c(F)c(F)c(F)c1F)C2=O [Example A-30, 3-butyroyloxy-1,8-naphthalimide pentafluorobenzenesulfonate]"
228,6000,1.5,1.5,2.5,,"CC1(C)C2CCC1(CS(=O)(=O)ON1C(=O)c3cccc4c(Cl)ccc(c34)C1=O)C(=O)C2 (stereo not drawn) [Example A-59, 4-chloro-1,8-naphthalimide-(+)-10-camphorsulfonate]"
231,12000,3,3,3.5,,"CC1(C)C2CCC1(CS(=O)(=O)ON1C(=O)c3cccc4c(OCC(F)(F)C(F)F)ccc(c34)C1=O)C(=O)C2 (stereo not drawn) [Example A-43, 4-(2,2,3,3-tetrafluoro-1-propoxy)-1,8-naphthalimide-(+)-10-camphorsulfonate]"
240,7500,5,6.5,6,,"COc1cc2c3c(cccc3c1)C(=O)N(OS(=O)(=O)c1c(F)c(F)c(F)c(F)c1F)C2=O [Example A-28, 3-methoxy-1,8-naphthalimide pentafluorobenzenesulfonate]"
243,1400,16,20,18,,"O=C(Oc1cc2c3c(cccc3c1)C(=O)N(OS(=O)(=O)c1c(F)c(F)c(F)c(F)c1F)C2=O)c1ccccc1 [Example A-31, 3-benzoyloxy-1,8-naphthalimide pentafluorobenzenesulfonate]"
244,1300,19,24,22,,"O=C(Oc1cc2c3c(cccc3c1)C(=O)N(OS(=O)(=O)c1c(F)c(F)c(F)c(F)c1F)C2=O)c1c(F)c(F)c(F)c(F)c1F [Example A-32, 3-pentafluorobenzoyloxy-1,8-naphthalimide pentafluorobenzenesulfonate]"
240,5500,8,7.5,9,,"C[Si](C)(C)c1ccc2c3c(cccc13)C(=O)N(OS(=O)(=O)C(F)(F)F)C2=O [Example A-18, 4-trimethylsilyl-1,8-naphthalimide trifluoromethanesulfonate]"

# Reference: patent publication US20160368879A1, “PHOTOACID GENERATOR, AND RESIN COMPOSITION FOR PHOTOLITHOGRAPHY” (SAN-APRO LTD., priority 2013, published 2016)
